Results as given in ChEMBL document CHEMBL1154822, “Synthesis and antiproliferative activity of 7-azaindirubin-3'-oxime, a 7-aza isostere of the natural indirubin pharmacophore” (J Nat Prod, 2009).

Experiments:
UACC-62 [1] = assay: Cytotoxicity against human UACC62 cells assessed as cell growth at 1 uM after 1 to 11 days by MTT assay; assay type: functional; details: read-out: Activity
OVCAR-3 [2] = assay: Cytotoxicity against human OVCAR-3 cells assessed as cell growth at 1 uM after 1 to 11 days by MTT assay; assay type: functional; details: read-out: Activity
786-0 = assay: Cytotoxicity against human 786-0 cells assessed as cell growth at 1 uM after 1 to 11 days by MTT assay; assay type: functional; details: read-out: Activity
OVCAR-5 [3] = assay: Cytotoxicity against human OVCAR5 cells assessed as cell growth at 10 uM after 1 to 11 days by MTT assay; assay type: functional; details: read-out: Activity
T47D [4] = assay: Cytotoxicity against human T47D cells assessed as cell growth at 1 uM after 1 to 11 days by MTT assay; assay type: functional; details: read-out: Activity
CCRF-CEM = assay: Cytotoxicity against human CCRF-CEM cells assessed as cell growth at 10 uM after 1 to 11 days by MTT assay; assay type: functional; details: read-out: Activity
MOLT-4 [5] = assay: Cytotoxicity against human MOLT4 cells assessed as cell growth at 10 uM after 1 to 11 days by MTT assay; assay type: functional; details: read-out: Activity
RPMI-8226 = assay: Cytotoxicity against human RPMI8226 cells assessed as cell growth at 10 uM after 1 to 11 days by MTT assay; assay type: functional; details: read-out: Activity
SF-268 = assay: Cytotoxicity against human SF268 cells assessed as cell growth at 10 uM after 1 to 11 days by MTT assay; assay type: functional; details: read-out: Activity
LOX IMVI = assay: Cytotoxicity against human LOXIMVI cells assessed as cell growth at 10 uM after 1 to 11 days by MTT assay; assay type: functional; details: read-out: Activity
BT-549 [6] = assay: Cytotoxicity against human BT549 cells assessed as cell growth at 10 uM after 1 to 11 days by MTT assay; assay type: functional; details: read-out: Activity
MOLT-4 [7] = assay: Cytotoxicity against human MOLT4 cells assessed as cell growth at 100 uM after 1 to 11 days by MTT assay; assay type: functional; details: read-out: Activity
NCI-H322M [8] = assay: Cytotoxicity against human NCI-H322M cells assessed as cell growth at 100 uM after 1 to 11 days by MTT assay; assay type: functional; details: read-out: Activity
[9] = Cytotoxicity against human Hs 578T cells assessed as cell growth at 100 uM after 1 to 11 days by MTT assay; assay type: functional; details: read-out: Activity
BT-549 [10] = assay: Cytotoxicity against human BT549 cells assessed as cell growth at 100 uM after 1 to 11 days by MTT assay; assay type: functional; details: read-out: Activity
T47D [11] = assay: Cytotoxicity against human T47D cells assessed as cell growth at 100 uM after 1 to 11 days by MTT assay; assay type: functional; details: read-out: Activity
MDA-MB-468 = assay: Cytotoxicity against human MDA-MB-468 cells assessed as cell growth at 100 uM after 1 to 11 days by MTT assay; assay type: functional; details: read-out: Activity
SR [12] = assay: Cytotoxicity against human SR cells assessed as cell growth at 1 mM after 1 to 11 days by MTT assay; assay type: functional; details: read-out: Activity
COLO 205 = assay: Cytotoxicity against human COLO205 cells assessed as cell growth at 1 mM after 1 to 11 days by MTT assay; assay type: functional; details: read-out: Activity
KM12 = assay: Cytotoxicity against human KM12 cells assessed as cell growth at 1 mM after 1 to 11 days by MTT assay; assay type: functional; details: read-out: Activity
K562 = assay: Cytotoxicity against human K562 cells after 1 to 11 days by MTT assay; assay type: functional
SW-620 [13] = assay: Cytotoxicity against human SW620 cells after 1 to 11 days by MTT assay; assay type: functional
SNB-19 [14] = assay: Cytotoxicity against human SNB19 cells after 1 to 11 days by MTT assay; assay type: functional
SNB-75 [15] = assay: Cytotoxicity against human SNB75 cells after 1 to 11 days by MTT assay; assay type: functional
UACC-62 [16] = assay: Cytotoxicity against human UACC62 cells assessed as cell growth at 1 mM after 1 to 11 days by MTT assay; assay type: functional; details: read-out: Activity
OVCAR-5 [17] = assay: Cytotoxicity against human OVCAR5 cells assessed as cell growth at 1 mM after 1 to 11 days by MTT assay; assay type: functional; details: read-out: Activity
PC-3 = assay: Cytotoxicity against human PC3 cells assessed as cell growth at 1 mM after 1 to 11 days by MTT assay; assay type: functional; details: read-out: Activity
[18] = Cytotoxicity against human Hs 578T cells assessed as cell growth at 1 mM after 1 to 11 days by MTT assay; assay type: functional; details: read-out: Activity
OVCAR-3 [19] = assay: Cytotoxicity against human OVCAR-3 cells after 1 to 11 days by MTT assay; assay type: functional
SK-OV-3 = assay: Cytotoxicity against human SKOV3 cells after 1 to 11 days by MTT assay; assay type: functional
TK-10 = assay: Cytotoxicity against human TK10 cells after 1 to 11 days by MTT assay; assay type: functional
[20] = Cytotoxicity against human Hs 578T cells after 1 to 11 days by MTT assay; assay type: functional
[21] = target: Glycogen synthase kinase-3 beta (Homo sapiens) (UniProt P49841); assay: Inhibition of human GSK3-beta at 3 uM after 40 mins by scintillation counting
Glycogen synthase kinase-3 beta (Homo sapiens), sequence (P49841 whole entry, looked up): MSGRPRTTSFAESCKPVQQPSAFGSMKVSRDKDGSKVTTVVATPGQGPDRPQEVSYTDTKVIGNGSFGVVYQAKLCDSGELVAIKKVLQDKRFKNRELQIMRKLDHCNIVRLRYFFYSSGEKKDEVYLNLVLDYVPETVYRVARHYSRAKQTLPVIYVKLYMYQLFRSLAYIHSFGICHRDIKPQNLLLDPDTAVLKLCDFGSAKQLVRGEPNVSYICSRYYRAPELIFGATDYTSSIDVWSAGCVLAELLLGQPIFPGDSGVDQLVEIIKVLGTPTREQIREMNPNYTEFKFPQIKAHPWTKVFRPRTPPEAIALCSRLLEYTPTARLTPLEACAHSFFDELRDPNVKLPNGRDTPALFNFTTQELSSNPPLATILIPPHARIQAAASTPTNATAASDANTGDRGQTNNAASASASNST

HL-60(TB) = assay: Cytotoxicity against human HL-60(TB) cells assessed as cell growth at 0.1 uM after 1 to 11 days by MTT assay; assay type: functional; details: read-out: Activity
SNB-75 [22] = assay: Cytotoxicity against human SNB75 cells assessed as cell growth at 0.1 uM after 1 to 11 days by MTT assay; assay type: functional; details: read-out: Activity
Malme-3M = assay: Cytotoxicity against human MALME-3M cells assessed as cell growth at 0.1 uM after 1 to 11 days by MTT assay; assay type: functional; details: read-out: Activity
NCI-H322M [23] = assay: Cytotoxicity against human NCI-H322M cells assessed as cell growth at 0.1 uM after 1 to 11 days by MTT assay; assay type: functional; details: read-out: Activity
NCI/ADR-RES = assay: Cytotoxicity against human NCI/ADR-RES cells assessed as cell growth at 0.1 uM after 1 to 11 days by MTT assay; assay type: functional; details: read-out: Activity
SR [24] = assay: Cytotoxicity against human SR cells assessed as cell growth at 1 uM after 1 to 11 days by MTT assay; assay type: functional; details: read-out: Activity
NCI-H460 = assay: Cytotoxicity against human NCI-H460 cells assessed as cell growth at 1 uM after 1 to 11 days by MTT assay; assay type: functional; details: read-out: Activity
HCC 2998 = assay: Cytotoxicity against human HCC2998 cells assessed as cell growth at 1 uM after 1 to 11 days by MTT assay; assay type: functional; details: read-out: Activity
HCT-116 = assay: Cytotoxicity against human HCT116 cells assessed as cell growth at 1 uM after 1 to 11 days by MTT assay; assay type: functional; details: read-out: Activity
SW-620 [25] = assay: Cytotoxicity against human SW620 cells assessed as cell growth at 1 uM after 1 to 11 days by MTT assay; assay type: functional; details: read-out: Activity
SNB-19 [26] = assay: Cytotoxicity against human SNB19 cells assessed as cell growth at 1 uM after 1 to 11 days by MTT assay; assay type: functional; details: read-out: Activity
[27] = read-out: LC50 (the source's name)

`O=C1Nc2ncccc2/C1=C1/Nc2ccccc2/C1=N\O` gave a growth at 1 µM (UACC-62 [1]) of 88%, a growth at 1 µM (OVCAR-3 [2]) of 93% and a growth at 1 µM (786-0) of 115%. For the same molecule, the growth at 10 µM (OVCAR-5 [3]) was 94%, the growth at 1 µM (T47D [4]) was 86% and the growth at 10 µM (CCRF-CEM) was 82%. For the same molecule, the growth at 10 µM (MOLT-4 [5]) was 70%, the growth at 10 µM (RPMI-8226) was 68% and the growth at 10 µM (SF-268) was 91%. The growth at 10 µM (LOX IMVI) was 86%, the growth at 10 µM (BT-549 [6]) was 69% and the growth at 100 µM (MOLT-4 [7]) was 26%. The growth at 100 µM (NCI-H322M [8]) was 8%, the growth at 100 µM [9] was 4% and the growth at 100 µM (BT-549 [10]) was 43%. The growth at 100 µM (T47D [11]) was 16%, the growth at 100 µM (MDA-MB-468) was 18% and the growth at 1000 µM (SR [12]) was 26%. For the same molecule, the growth at 1000 µM (COLO 205) was 23%, the growth at 1000 µM (KM12) was 6% and the GI50 (K562) was 3.84 µM. The TGI (K562) was > 100 µM, the CC50 (K562; [27]) was > 100 µM and the GI50 (SW-620 [13]) was 7.45 µM. The TGI (SW-620 [13]) was > 100 µM, the CC50 (SW-620 [13]; [27]) was > 100 µM and the GI50 (SNB-19 [14]) was > 100 µM. The TGI (SNB-19 [14]) was > 100 µM, the CC50 (SNB-19 [14]; [27]) was > 100 µM and the GI50 (SNB-75 [15]) was 3.13 µM. The TGI (SNB-75 [15]) was > 100 µM, the CC50 (SNB-75 [15]; [27]) was > 100 µM and the growth at 1000 µM (UACC-62 [16]) was 25%. The growth at 1000 µM (OVCAR-5 [17]) was 49%, the growth at 1000 µM (PC-3) was 45% and the growth at 1000 µM [18] was 31%. The GI50 (OVCAR-3 [19]) was > 100 µM, the TGI (OVCAR-3 [19]) was > 100 µM and the CC50 (OVCAR-3 [19]; [27]) was > 100 µM. The GI50 (SK-OV-3) was 1.79 µM, the CC50 (SK-OV-3; [27]) was > 100 µM and the GI50 (TK-10) was 9.72 µM. The TGI (TK-10) was > 100 µM, the CC50 (TK-10; [27]) was > 100 µM and the GI50 [20] was 2.39 µM. The TGI [20] was > 100 µM, the CC50 [20, 27] was > 100 µM and the inhibition [21] was 81%. For the same molecule, the growth at 0.1 µM (HL-60(TB)) was 103%, the growth at 0.1 µM (SNB-75 [22]) was 84% and the growth at 0.1 µM (Malme-3M) was 94%. The growth at 0.1 µM (NCI-H322M [23]) was 95%, the growth at 0.1 µM (NCI/ADR-RES) was 99% and the growth at 1 µM (SR [24]) was 89%. The growth at 1 µM (NCI-H460) was 105%, the growth at 1 µM (HCC 2998) was 87% and the growth at 1 µM (HCT-116) was 107%. For the same molecule, the growth at 1 µM (SW-620 [25]) was 94% and the growth at 1 µM (SNB-19 [26]) was 97%.
